# Data taken from patent US20230321067A1, “DOSING REGIMEN COMPRISING 3-(1-OXOISOINDOLIN-2-YL)PIPERIDINE-2,6-DIONE DERIVATIVES” (Novartis AG, priority 2020, published 2023).
# Where “and” joins values, the source holds several entries; their conditions need not be identical. Identical values can stand only once.
# What was measured:
# [1] = molecular target: CYP2D6 (Homo sapiens, UniProt P10635); assay: Time-dependent CYP inhibition: CYP2D6; type: in vitro ADME; conditions: I-57 concentrations of up to 100 μM
# CYP2D6, sequence (P10635 whole entry): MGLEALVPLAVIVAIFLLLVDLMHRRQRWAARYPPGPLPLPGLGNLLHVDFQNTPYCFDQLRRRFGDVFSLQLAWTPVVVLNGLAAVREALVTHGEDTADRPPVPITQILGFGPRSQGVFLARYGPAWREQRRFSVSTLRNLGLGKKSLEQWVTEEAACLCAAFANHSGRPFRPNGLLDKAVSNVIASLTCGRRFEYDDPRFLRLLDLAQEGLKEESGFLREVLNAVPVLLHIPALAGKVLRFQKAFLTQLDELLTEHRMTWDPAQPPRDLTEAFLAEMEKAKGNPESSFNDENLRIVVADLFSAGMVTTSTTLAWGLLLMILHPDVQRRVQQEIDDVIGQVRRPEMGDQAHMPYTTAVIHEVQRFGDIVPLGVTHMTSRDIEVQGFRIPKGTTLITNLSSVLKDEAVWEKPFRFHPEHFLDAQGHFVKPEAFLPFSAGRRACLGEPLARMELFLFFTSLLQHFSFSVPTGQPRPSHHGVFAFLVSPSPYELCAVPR
# [2] = molecular target: CYP2C9 (Homo sapiens, UniProt P11712); assay: CYP inhibition: CYP2C9; type: in vitro ADME; conditions: I-57 concentrations of up to 100 μM
# CYP2C9, sequence (P11712 whole entry): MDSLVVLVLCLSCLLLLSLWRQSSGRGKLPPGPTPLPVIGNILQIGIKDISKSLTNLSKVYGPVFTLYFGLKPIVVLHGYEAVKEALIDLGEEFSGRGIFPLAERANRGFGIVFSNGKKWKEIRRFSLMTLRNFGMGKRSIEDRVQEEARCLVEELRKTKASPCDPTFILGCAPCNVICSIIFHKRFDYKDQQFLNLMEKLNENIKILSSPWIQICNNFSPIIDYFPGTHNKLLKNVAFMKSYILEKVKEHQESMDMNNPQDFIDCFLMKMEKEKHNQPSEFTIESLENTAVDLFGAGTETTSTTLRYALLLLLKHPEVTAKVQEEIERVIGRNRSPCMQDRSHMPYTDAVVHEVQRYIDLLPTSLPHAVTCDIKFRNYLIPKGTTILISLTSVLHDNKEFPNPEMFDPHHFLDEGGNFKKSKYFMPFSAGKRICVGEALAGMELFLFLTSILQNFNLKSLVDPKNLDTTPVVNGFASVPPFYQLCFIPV
# [3] = system: IL-2 mRNA and soluble protein in Jurkat cells; assay: IL-2 expression in TCR-stimulated Jurkat cells; type: cell-based; conditions: Homo sapiens; Jurkat cells upon TCR stimulation
# From the text: Although the specific transcriptional targets of IKZF2 remain to be defined, IKZF2 binds to and represses transcription from the IL-2 promoter region (Baine 2013). […] Finally, an in vitro assay recapitulating hallmarks of T cell dysfunction/exhaustion, by sequential TCR stimulation of isolated primary human T cells, was used to test the hypothesis that […] would rescue the exhausted phenotype and enhance Teff cell activity. […] In addition to IKZF1, other known cereblon substrates including translation termination factor G1 to S phase transition 1 (GSPT1) are not degraded by I-57 (FIG. 1).
# [4] = system: plasma protein; assay: Plasma protein binding in vitro, monkey; type: in vitro ADME
# From the text: (§1) The binding to plasma protein of I-57 in vitro was moderate in all species, with an observed difference between rodents (73% in mouse, 76% in rat) and non-rodents (52% in dog and monkey, 54% in human). Blood-to-plasma ratios were in the range of 0.7-1.8 (human 1.1-1.3). […] Based on results with non-radiolabeled I-57 in the dog, a significant amount of unchanged I-57 was renally eliminated (˜20% of dose).
# [5] = In vivo non-clinical PK, monkey; set-up: species or system cynomolgus monkey
# Description: (§2) The in vivo non-clinical PK profile of I-57 was investigated in mouse, rat, dog and cynomolgus monkey using I-57 free base. […] After p.o. administration, the absorption of I-57 was rapid with peak blood concentration (Tmax) occurring between 1 and 4 hours. […] In high dose PK and toxicology studies with I-57 the exposures in mouse, rat and monkey increased with dose.
# [6] = molecular target: CYP2C8 (Homo sapiens, UniProt P10632); assay: Time-dependent CYP inhibition: CYP2C8; type: in vitro ADME; conditions: I-57 concentrations of up to 100 μM
# CYP2C8, sequence (P10632 whole entry): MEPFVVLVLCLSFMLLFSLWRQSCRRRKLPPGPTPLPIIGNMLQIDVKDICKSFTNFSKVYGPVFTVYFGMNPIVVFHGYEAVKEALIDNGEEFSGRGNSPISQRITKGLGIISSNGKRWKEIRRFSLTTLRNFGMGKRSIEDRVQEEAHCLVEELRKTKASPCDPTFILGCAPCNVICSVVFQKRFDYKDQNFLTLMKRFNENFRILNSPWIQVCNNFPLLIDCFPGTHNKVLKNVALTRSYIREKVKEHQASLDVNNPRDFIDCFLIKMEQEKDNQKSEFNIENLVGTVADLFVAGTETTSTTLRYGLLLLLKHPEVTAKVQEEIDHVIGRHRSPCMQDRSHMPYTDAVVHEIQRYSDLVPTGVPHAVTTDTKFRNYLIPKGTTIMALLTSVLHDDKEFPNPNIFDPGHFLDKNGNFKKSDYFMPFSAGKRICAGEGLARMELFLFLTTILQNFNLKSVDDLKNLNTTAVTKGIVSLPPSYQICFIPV
# [7] = In vivo non-clinical PK, rat
# Description: as §2
# [8] = molecular target: CYP1A2 (Homo sapiens, UniProt P05177); assay: CYP inhibition: CYP1A2; type: in vitro ADME; conditions: I-57 concentrations of up to 100 μM
# CYP1A2, sequence (P05177 whole entry): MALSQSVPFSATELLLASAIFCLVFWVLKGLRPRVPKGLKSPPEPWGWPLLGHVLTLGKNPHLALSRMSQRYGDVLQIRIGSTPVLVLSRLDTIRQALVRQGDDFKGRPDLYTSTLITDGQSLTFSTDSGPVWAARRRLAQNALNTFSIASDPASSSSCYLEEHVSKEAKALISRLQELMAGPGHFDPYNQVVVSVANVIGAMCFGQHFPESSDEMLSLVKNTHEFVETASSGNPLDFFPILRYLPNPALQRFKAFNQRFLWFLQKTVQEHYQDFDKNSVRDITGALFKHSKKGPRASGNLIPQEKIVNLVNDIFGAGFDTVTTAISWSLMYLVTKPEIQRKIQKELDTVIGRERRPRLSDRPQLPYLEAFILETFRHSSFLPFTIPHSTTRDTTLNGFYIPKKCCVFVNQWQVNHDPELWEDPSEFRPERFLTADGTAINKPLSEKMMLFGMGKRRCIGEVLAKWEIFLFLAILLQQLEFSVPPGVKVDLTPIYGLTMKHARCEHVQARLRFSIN
# [9] = system: peripheral T cells; assay: Immunization response (KLH/Squalene) in cynomolgus monkey: anti-KLH IG and Ki67 T cells; type: in vivo
# Description: The PK/PD relationship of I-57 was further examined in cynomolgus monkeys after repeated daily oral doses of 0.1 and 3 mg/kg. In this study, a cohort of animals were initially immunized with an antigen-adjuvant mixture (KLH/Squalene). The experiment was designed to assess the effect of I-57 exposure, and the resulting IKZF2 degradation, on immune response during immunization to test the hypothesis that IKZF2 degradation would result in increased proliferation of stimulated T-cells. In the experiment, daily I-57 oral treatment was initiated 5 days after immunization. An immunization booster dose was administered on day 15. I-57 plasma concentration and IKZF2 expression (as determined by flow cytometry) in FOXP3+ T cells from PBMCs were determined (FIG. 9A and FIG. 9B).
# In order to measure the impact of I-57 treatment on the immune response following immunization, serum anti-KLH IG levels were measured longitudinally, and levels of T cell activation were measured in PBMCs by flow cytometry. […] In contrast, the proportion of proliferative peripheral T cells (denoted by Ki67 staining) was increased in the highest dose group (3 mg/kg) in the recall response phase, compared to immunization alone.
# [10] = molecular target: T1, IKZF2 (Homo sapiens, UniProt Q96SW2+Q9UKS7); assay: Degradation of prolabel-tagged IKZF2 in HEK293T cells (FIG. 1); type: cell-based; set-up: prolabel (ProLabel enzyme-fragment tag); expressed in transfected cells; host or cells: HEK293T; conditions: HEK293T cells overexpressing prolabel-tagged target proteins, various concentrations
# T1 sequence (Q9UKS7 whole entry, the tested form may be a part): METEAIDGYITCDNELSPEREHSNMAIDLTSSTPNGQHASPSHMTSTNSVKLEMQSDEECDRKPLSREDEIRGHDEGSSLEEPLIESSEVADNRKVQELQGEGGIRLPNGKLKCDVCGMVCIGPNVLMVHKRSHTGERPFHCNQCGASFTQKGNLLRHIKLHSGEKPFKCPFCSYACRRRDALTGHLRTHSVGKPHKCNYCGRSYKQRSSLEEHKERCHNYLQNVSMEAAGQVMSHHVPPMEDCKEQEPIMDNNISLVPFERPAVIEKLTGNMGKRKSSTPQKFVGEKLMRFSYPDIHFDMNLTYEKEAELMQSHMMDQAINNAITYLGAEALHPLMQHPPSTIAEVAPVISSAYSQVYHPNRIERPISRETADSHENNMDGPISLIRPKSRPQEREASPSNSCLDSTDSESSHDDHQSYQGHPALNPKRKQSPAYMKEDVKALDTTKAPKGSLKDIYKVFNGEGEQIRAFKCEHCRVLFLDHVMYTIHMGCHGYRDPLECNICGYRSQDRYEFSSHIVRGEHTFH
# T1 sequence (Q96SW2 whole entry, the tested form may be a part): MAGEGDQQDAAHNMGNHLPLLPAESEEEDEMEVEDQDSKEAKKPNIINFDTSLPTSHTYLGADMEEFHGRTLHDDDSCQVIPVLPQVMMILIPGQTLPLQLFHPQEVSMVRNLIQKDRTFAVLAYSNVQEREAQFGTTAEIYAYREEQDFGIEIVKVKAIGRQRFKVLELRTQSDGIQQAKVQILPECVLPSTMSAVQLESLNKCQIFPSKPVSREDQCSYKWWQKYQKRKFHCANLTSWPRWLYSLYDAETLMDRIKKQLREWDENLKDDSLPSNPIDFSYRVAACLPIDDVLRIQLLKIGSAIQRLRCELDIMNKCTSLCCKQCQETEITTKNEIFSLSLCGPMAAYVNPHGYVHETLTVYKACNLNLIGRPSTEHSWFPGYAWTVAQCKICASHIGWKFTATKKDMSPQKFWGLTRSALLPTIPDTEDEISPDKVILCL
# T1 sequence (Q16531 whole entry partner, the tested form may be a part): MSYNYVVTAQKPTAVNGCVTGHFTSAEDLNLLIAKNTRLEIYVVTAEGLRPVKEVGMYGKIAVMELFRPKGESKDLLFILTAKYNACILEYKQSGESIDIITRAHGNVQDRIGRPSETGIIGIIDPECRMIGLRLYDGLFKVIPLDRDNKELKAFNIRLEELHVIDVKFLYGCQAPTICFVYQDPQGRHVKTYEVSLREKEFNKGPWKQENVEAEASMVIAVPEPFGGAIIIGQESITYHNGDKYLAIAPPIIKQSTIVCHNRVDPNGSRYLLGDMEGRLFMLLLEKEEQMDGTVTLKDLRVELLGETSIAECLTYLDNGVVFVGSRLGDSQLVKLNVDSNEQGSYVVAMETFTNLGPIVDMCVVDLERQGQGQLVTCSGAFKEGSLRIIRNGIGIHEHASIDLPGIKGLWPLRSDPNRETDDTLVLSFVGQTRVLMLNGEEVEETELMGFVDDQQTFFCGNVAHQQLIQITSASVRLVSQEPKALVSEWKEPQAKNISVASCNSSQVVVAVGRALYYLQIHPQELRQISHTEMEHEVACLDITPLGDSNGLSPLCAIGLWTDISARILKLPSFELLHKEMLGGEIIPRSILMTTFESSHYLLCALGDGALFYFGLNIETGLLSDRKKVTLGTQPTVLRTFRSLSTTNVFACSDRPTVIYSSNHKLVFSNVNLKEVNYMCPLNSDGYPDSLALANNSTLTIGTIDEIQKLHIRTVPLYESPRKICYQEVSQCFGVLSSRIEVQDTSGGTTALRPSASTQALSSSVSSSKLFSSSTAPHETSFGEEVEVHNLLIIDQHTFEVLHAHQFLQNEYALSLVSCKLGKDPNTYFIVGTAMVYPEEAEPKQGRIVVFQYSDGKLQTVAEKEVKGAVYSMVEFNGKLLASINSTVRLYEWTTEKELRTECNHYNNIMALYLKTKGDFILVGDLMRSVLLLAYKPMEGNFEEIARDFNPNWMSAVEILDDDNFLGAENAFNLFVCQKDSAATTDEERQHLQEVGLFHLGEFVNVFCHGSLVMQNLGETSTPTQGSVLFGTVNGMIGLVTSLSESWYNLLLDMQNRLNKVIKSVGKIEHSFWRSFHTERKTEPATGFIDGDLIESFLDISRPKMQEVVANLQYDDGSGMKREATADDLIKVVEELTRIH
# From the text: FIG. 1. is a graph showing the selectivity of Compound I-57 for the degradation of IKZF2 over the other IKAROS family members, IKZF1, IKZF4, and GSPT1 at various concentrations in HEK293T cells overexpressing prolabel-tagged target proteins.
# [11] = system: plasma protein; assay: Plasma protein binding in vitro, dog; type: in vitro ADME
# From the text: as §1
# [12] = molecular target: T1, IKZF2; assay: IKZF2 protein levels in total tumor-infiltrating lymphocytes by immunohistochemistry, hPBMC AdT model with MDA-MB231 xenografts (FIG. 8A, 8B); type: in vivo; set-up: endogenous in cells; host or cells: primary human PBMCs; conditions: 24 h post the 14th daily dose
# Description: FIG. 6 is a pictorial representation of the multi-dose PK/PD study design in the human PBMC adoptive transfer mouse model harboring MDA-MB231 xenografts. Fourteen consecutive daily doses of Compound I-57 was administered at 0.3 mg/kg, 1 mg/kg, 3 mg/kg or 30 mg/kg.
# FIG. 8A is a bar graph showing the change in the IKZF2 protein levels in total tumor-infiltrating lymphocytes by immunohistochemistry (IHC) at 24 h post the 14th daily dose of 1, 3 or 30 mg/kg Compound I-57.
# [13] = molecular target: CYP2C19 (Homo sapiens, UniProt P33261); assay: CYP inhibition: CYP2C19; type: in vitro ADME; conditions: I-57 concentrations of up to 100 μM
# CYP2C19, sequence (P33261 whole entry): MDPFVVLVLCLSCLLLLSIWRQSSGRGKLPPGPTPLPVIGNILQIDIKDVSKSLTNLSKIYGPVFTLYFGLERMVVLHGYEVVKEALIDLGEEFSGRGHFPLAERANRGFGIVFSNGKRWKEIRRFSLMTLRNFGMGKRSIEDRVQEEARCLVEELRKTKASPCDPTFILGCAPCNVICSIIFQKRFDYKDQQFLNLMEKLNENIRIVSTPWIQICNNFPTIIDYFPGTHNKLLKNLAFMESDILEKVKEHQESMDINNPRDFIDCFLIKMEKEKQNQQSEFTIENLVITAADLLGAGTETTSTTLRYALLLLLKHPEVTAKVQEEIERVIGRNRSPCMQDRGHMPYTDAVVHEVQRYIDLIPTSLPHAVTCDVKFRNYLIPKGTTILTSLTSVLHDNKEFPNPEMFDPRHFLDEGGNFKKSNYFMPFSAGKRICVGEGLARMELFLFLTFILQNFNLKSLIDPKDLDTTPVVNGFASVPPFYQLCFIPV
# [14] = ECG (QTc) in monkeys, single dose and 4-week GLP repeat dose study; type: in vivo, monkey
# Description: The risk of possible QTc interval prolongation at the starting dose is therefore considered low. QT prolongation may become clinically significant during escalation but are not anticipated to be dose limiting until doses at or above 640 mg. Monitoring and other measures to mitigate potential risk of arrhythmia is addressed in Example 3 below.
smiles,measurement,setting,value
"O=C1CCC(N2Cc3cc(C4CCN(Cc5ccccc5)CC4)ccc3C2=O)C(=O)N1 (centres unmarked) [Compound I-57, 3-(5-(1-benzylpiperidin-4-yl)-1-oxoisoindolin-2-yl)piperidine-2,6-dione]",time-dependent inhibition of CYP2D6,[1],no apparent time-dependent inhibition
same,inhibition of CYP2C9,[2],very little and no inhibition
same,AC50,[3],~4 nM and ~0.0017 µg/mL
same,binding to plasma protein,[4],52%
same,dose proportionality of AUC,[5]; above 100 mg/kg,less than dose proportional
same,dose proportionality of AUC,[5]; between 10 mg/kg and 100 mg/kg,slightly over-proportional
same,bioavailability,"[5]; cynomolgus monkey, blood, po",89%
same,time-dependent inhibition of CYP2C8,[6],no apparent time-dependent inhibition
same,dose proportionality of AUC,[7]; between 3 mg/kg and 300 mg/kg,roughly dose proportional
same,bioavailability,"[7]; blood, po",90%
same,inhibition of CYP1A2,[8],very little and no inhibition
same,proportion of proliferative peripheral T cells (Ki67 staining),"[9]; 3 mg/kg, recall response phase, compared to immunization alone",increased
same,Anti-IgG titers elicited by the immunization (serum anti-KLH IG),"[9]; KLH/Squalene immunization, daily I-57",not further enhanced
same,"degradation of IKZF2 and selectivity over IKZF1, IKZF4 and GSPT1",[10],potent and specific degrader of IKZF2
same,binding to plasma protein,[11],52%
same,maximal level of IKZF2 degradation in total tumor-infiltrating lymphocytes (IHC),[12]; 30 mg/kg,approximately 85%
same,reduction in IKZF2 levels in total tumor-infiltrating lymphocytes (IHC),"[12]; 1, 3 and 30 mg/kg doses",Robust reduction
same,inhibition of CYP2C19,[13],very little and no inhibition
same,cardiac electrical instability or wave abnormality,[14],No cardiac electrical instability or wave abnormality was observed
same,QT effects,[14]; 3 mg/kg,no QT effects were noted
same,free Cmax in monkeys at 3 mg/kg relative to free Cmax predicted at the clinical starting dose of 20 mg,[14]; 3 mg/kg,~8.4 times
same,time of highest magnitude of the QTc effect,[14]; coinciding with Tmax,0.5 to 5.5 h
same,increase in QTc interval,"[14]; doses >10 mg/kg, single dose and 4-week GLP repeat dose study",at least 30 mSec
